Data as given in US8192962B2, “Processes for detecting toxic substances” (Daikin Industries, Ltd., priority 2001, dated 2012).

Test system: Mitochondria-located protein genes
Test: DNA chip mRNA expression in yeast, mitochondria-located protein genes (Table 2)
Type: cell-based, Saccharomyces cerevisiae S288C
Details: cells incubated two hours with the chemical substance
Method: Yeast (Saccharomyces cerevisiae S288C (α SUC2mal mel gap2 CUP1)) were incubated at 25° C. on YPD medium (yeast extract 1%, polypepton 2%, glucose 2%). One of toxic chemical substances was added to the cells at logarithmic growth phase, and the cells were further incubated for two hours. Cells were cultured without any chemical substance in the same condition, and were used as control. Concentrations of the chemical substances were defined to inhibit the growth of the yeast but not lead to death.
After completion of the incubation, the culture was centrifuged to collect the cells. To the cells, sodium acetate buffer (50 mM sodium acetate, 10 mM EDTA, 1% SDS) was added, and the mixture was shaken at 65° C. for five minutes, followed by returning to room temperature, and obtaining the supernatant, of which the procedures were repeated two times. To the supernatant, ½ amount of a solution of phenol/chloroform was added, and the mixture was centrifuged to give a supernatant, which was added with an equal amount of chloroform, and the mixture was centrifuged to give a supernatant. To the supernatant, an equal amount of isopropanol containing 0.3 M sodium acetate was added, and the mixture was allowed to stand at room temperature for 30 minutes, after which the mixture was centrifuged to give a sediment of the whole RNAs. Seventy % ethanol was added to the sediment, and the mixture was again centrifuged to give a sediment, which was then dried and dissolved in water. mRNA was isolated from the whole RNAs as followings. In view of the fact that a poly A chain is attached to the 3′ terminus of mRNA, a polynucleotide having a poly T structure which was immobilized on the surface of latex beads was used to trap the mRNA, and then the mRNA was washed and eluted with spine column (Oligotex-dT30<Super>mRNA Purification Kit, Takara). Reverse transcription of the mRNA was conducted with a reverse transcriptase (Super Script II Reverse Transcriptase; catalogue No. 18064-014, GibcoBRL) using fluorescence-labeled nucleotides to give cDNAs that were introduced with Cy3-dUTP or Cy5-dUTP during the reverse transcription.
The labeled cDNAs were dissolved in TE buffer (10mM Tris-HCl/1 mM EDTA, pH8.0), and the solution was dropped on the DNA chip containing the whole genes of yeast (DNA Chip Research Inc. Japan) so that the cDNAs were hybridized on the DNA chip at 65° C. for over 12 hours. The fluoresces intensity of the DNA chip was read with a scanner, and the ratio relative to the fluorescence intensity resulting from the absence of chemical substance was estimated as the following, which is shown in Tables 1 to 9: […]

O=[N+]([O-])c1cc[n+]([O-])c2ccccc12 [(5), 4-nitroquinolin-N-oxide]
The level of expressed mRNA in the presence of chemical substance/The level of expressed mRNA in the absence of chemical substance (yeast gene YJR121W): 0.8
The level of expressed mRNA in the presence of chemical substance/The level of expressed mRNA in the absence of chemical substance (yeast gene YKL003C): 1.0
The level of expressed mRNA in the presence of chemical substance/The level of expressed mRNA in the absence of chemical substance (yeast gene YKL016C): 1.5
The level of expressed mRNA in the presence of chemical substance/The level of expressed mRNA in the absence of chemical substance (yeast gene YKL141W): 1.5
The level of expressed mRNA in the presence of chemical substance/The level of expressed mRNA in the absence of chemical substance (yeast gene YKL142W): 0.7
The level of expressed mRNA in the presence of chemical substance/The level of expressed mRNA in the absence of chemical substance (yeast gene YKL148C): 0.8
The level of expressed mRNA in the presence of chemical substance/The level of expressed mRNA in the absence of chemical substance (yeast gene YKL170W): 1.3
The level of expressed mRNA in the presence of chemical substance/The level of expressed mRNA in the absence of chemical substance (yeast gene YKL194C): 1.8
The level of expressed mRNA in the presence of chemical substance/The level of expressed mRNA in the absence of chemical substance (yeast gene YKR066C): 1.0
The level of expressed mRNA in the presence of chemical substance/The level of expressed mRNA in the absence of chemical substance (yeast gene YLL041C): 1.6
The level of expressed mRNA in the presence of chemical substance/The level of expressed mRNA in the absence of chemical substance (yeast gene YLR038C): 1.8
The level of expressed mRNA in the presence of chemical substance/The level of expressed mRNA in the absence of chemical substance (yeast gene YLR259C): 1.1
The level of expressed mRNA in the presence of chemical substance/The level of expressed mRNA in the absence of chemical substance (yeast gene YLR295C): 2.2
The level of expressed mRNA in the presence of chemical substance/The level of expressed mRNA in the absence of chemical substance (yeast gene YLR304C): 0.6
The level of expressed mRNA in the presence of chemical substance/The level of expressed mRNA in the absence of chemical substance (yeast gene YLR348C): 0.9
The level of expressed mRNA in the presence of chemical substance/The level of expressed mRNA in the absence of chemical substance (yeast gene YLR395C): 0.7
The level of expressed mRNA in the presence of chemical substance/The level of expressed mRNA in the absence of chemical substance (yeast gene YML054C): 1.3
The level of expressed mRNA in the presence of chemical substance/The level of expressed mRNA in the absence of chemical substance (yeast gene YML120C): 0.6
The level of expressed mRNA in the presence of chemical substance/The level of expressed mRNA in the absence of chemical substance (yeast gene YML129C): 1.7
The level of expressed mRNA in the presence of chemical substance/The level of expressed mRNA in the absence of chemical substance (yeast gene YMR023C): 1.7
The level of expressed mRNA in the presence of chemical substance/The level of expressed mRNA in the absence of chemical substance (yeast gene YMR035W): 0.8
The level of expressed mRNA in the presence of chemical substance/The level of expressed mRNA in the absence of chemical substance (yeast gene YMR083W): 1.5
The level of expressed mRNA in the presence of chemical substance/The level of expressed mRNA in the absence of chemical substance (yeast gene YMR089C): 0.8
The level of expressed mRNA in the presence of chemical substance/The level of expressed mRNA in the absence of chemical substance (yeast gene YMR152W): 0.8
The level of expressed mRNA in the presence of chemical substance/The level of expressed mRNA in the absence of chemical substance (yeast gene YMR193W): 2.2
The level of expressed mRNA in the presence of chemical substance/The level of expressed mRNA in the absence of chemical substance (yeast gene YMR203W): 0.6
The level of expressed mRNA in the presence of chemical substance/The level of expressed mRNA in the absence of chemical substance (yeast gene YMR267W): 1.0
The level of expressed mRNA in the presence of chemical substance/The level of expressed mRNA in the absence of chemical substance (yeast gene YNL055C): 0.9
The level of expressed mRNA in the presence of chemical substance/The level of expressed mRNA in the absence of chemical substance (yeast gene YNL071W): 0.6
The level of expressed mRNA in the presence of chemical substance/The level of expressed mRNA in the absence of chemical substance (yeast gene YNL073W): 0.6
The level of expressed mRNA in the presence of chemical substance/The level of expressed mRNA in the absence of chemical substance (yeast gene YNL104C): 0.8
The level of expressed mRNA in the presence of chemical substance/The level of expressed mRNA in the absence of chemical substance (yeast gene YNL256W): 1.0
The level of expressed mRNA in the presence of chemical substance/The level of expressed mRNA in the absence of chemical substance (yeast gene YOL096C): 1.2
The level of expressed mRNA in the presence of chemical substance/The level of expressed mRNA in the absence of chemical substance (yeast gene YOR020C): 1.5
The level of expressed mRNA in the presence of chemical substance/The level of expressed mRNA in the absence of chemical substance (yeast gene YOR037W): 1.5
The level of expressed mRNA in the presence of chemical substance/The level of expressed mRNA in the absence of chemical substance (yeast gene YOR100C): 1.0
The level of expressed mRNA in the presence of chemical substance/The level of expressed mRNA in the absence of chemical substance (yeast gene YOR130C): 1.8
The level of expressed mRNA in the presence of chemical substance/The level of expressed mRNA in the absence of chemical substance (yeast gene YOR142W): 1.4
The level of expressed mRNA in the presence of chemical substance/The level of expressed mRNA in the absence of chemical substance (yeast gene YOR150W): 0.8
The level of expressed mRNA in the presence of chemical substance/The level of expressed mRNA in the absence of chemical substance (yeast gene YOR176W): 1.0
The level of expressed mRNA in the presence of chemical substance/The level of expressed mRNA in the absence of chemical substance (yeast gene YOR187W): 0.6
The level of expressed mRNA in the presence of chemical substance/The level of expressed mRNA in the absence of chemical substance (yeast gene YOR316C): 1.0
The level of expressed mRNA in the presence of chemical substance/The level of expressed mRNA in the absence of chemical substance (yeast gene YPL040C): 0.8
The level of expressed mRNA in the presence of chemical substance/The level of expressed mRNA in the absence of chemical substance (yeast gene YPL134C): 1.4
The level of expressed mRNA in the presence of chemical substance/The level of expressed mRNA in the absence of chemical substance (yeast gene YPL135W): 1.6
The level of expressed mRNA in the presence of chemical substance/The level of expressed mRNA in the absence of chemical substance (yeast gene YPL215W): 0.8
The level of expressed mRNA in the presence of chemical substance/The level of expressed mRNA in the absence of chemical substance (yeast gene YPL262W): 0.6
The level of expressed mRNA in the presence of chemical substance/The level of expressed mRNA in the absence of chemical substance (yeast gene YPR024W): 1.3
The level of expressed mRNA in the presence of chemical substance/The level of expressed mRNA in the absence of chemical substance (yeast gene YPR037C): 0.8
The level of expressed mRNA in the presence of chemical substance/The level of expressed mRNA in the absence of chemical substance (yeast gene YPR047W): 0.9
The level of expressed mRNA in the presence of chemical substance/The level of expressed mRNA in the absence of chemical substance (yeast gene YPR134W): 1.5
